Reference: patent US20260191927A1, “FORMULATION OF THERAPEUTIC AGENTS FOR IMPROVED PERMEATION” (priority 2023, published 2026)

What was measured:
[1] = Critical micelle concentration (CMC) of bile salts; type: physicochemical; conditions: approximate values; critical micellular concentration
Description: In some embodiments, a bile acid or salt thereof of the disclosure is characterized by a critical micelle concentration (CMC). In some embodiments, the bile acid or salt thereof aggregates and/or forms micelles at a concentration above the CMC. […] In some embodiments, the method comprises potentiometry, spectrophotometry, nuclear magnetic resonance, viscosimetry, turbidimetry, microcalorimetry, refractometry, conductimetry, cholesterol solubilization, bilirubin monoglucuronide solubilization, dye solubilization, fluorescence, capillary electrophoresis, reverse phase HPLC, freezing point depression, surface tension, and/or light scattering. In some embodiments, the CMC value is an average of at least 3-50 replicates measured by a single technique (e.g., 3-50 replicates measured by potentiometry, 3-50 replicates measured by spectrophotometry, or 3-50 replicates measured by light scattering). In some embodiments, the CMC value is an average of replicates measured by more than one technique, wherein at least 3, 4, 5, 6, 7, 8, 9, or 10 replicates are measured per technique (e.g., an average of (i) at least 3, 4, 5, 6, 7, 8, 9, or 10 replicates measured by potentiometry, (ii) at least 3, 4, 5, 6, 7, 8, 9, or 10 replicates measured by spectrophotometry, (iii) at least 3, 4, 5, 6, 7, 8, 9, or 10 replicates measured by light scattering, (iv) replicates from any pair-wise combination of (i)-(iii), or (v) replicates from a combination of (i)-(iii)).
The bile acids tested in the formulations are identified in Table 2. The bile acids selected for testing vary in the number of hydroxyl groups, stereochemistry of hydroxyl groups, and conjugation at terminal acid.

[2] = test system: porcine ex vivo intestinal tissue; assay: GI-ORIS ex vivo intestinal permeation assay
Description: (§1) A custom device confines larger tissue explants into individual compartments with donor and receiver chambers that face the apical and basolateral faces of the intestinal tissue, respectively. Porcine tissue was dissected as previously described from freshly harvested gastrointestinal tracts and jejunal segments were stored in calcium-free Krebs buffer at 4° C. for 16 hours prior to mounting between the receiver and donor compartments of a GI-ORIS device. Receiver compartments were filled with 150 μL of either 5% Bovine Serum Albumin (for Vancomycin) or 0.1% Ovalbumin (for Calcitonin, Insulin, Semaglutide) solutions prior to tissue mounting. […]
(§2) Vancomycin in receiver fluid samples was detected using LC-TOF. […] Quantification was performed relative to standard curves prepared in receiver fluid with no exposure to peptide.
(§3) Semaglutide in receiver fluid samples was detected using LC-QQQ. […] Quantification was performed relative to standard curves prepared in receiver fluid with no exposure to peptide.
(§4) Calcitonin and Insulin in receiver fluid samples (following a 1000× dilution in PBS) were detected using established protocols of commercial sandwich ELISA kits (Abcam, Waltham, MA, and Thermo Fisher Scientific, Waltham, MA). TMB chromogen absorbance was converted to peptide concentration relative to a standard curve prepared using provided standards in ELISA buffer. […]

[3] = test system: porcine ex vivo intestinal tissue
Description: as §1, §2, §3, §4

| Compound | CMC [1] [mM] | CMC (mg/mL) [1] | lowest concentration for which a maximal effect on vancomycin permeability was observed [2] [mg/mL] | enhancement in intestinal permeability of the peptides [3] |
| --- | --- | --- | --- | --- |
| C[C@H](CCC(=O)[O-])[C@H]1CC[C@H]2[C@@H]3[C@H](O)C[C@@H]4C[C@H](O)CC[C@]4(C)[C@H]3CC[C@]12C.[Na+] [CDCA, sodium chenodeoxycholate] | 4 | 1.6 mg/ mL mg/mL |  |  |
| C[C@H](CCC(=O)[O-])[C@H]1CC[C@H]2[C@@H]3[C@H](O)C[C@@H]4C[C@H](O)CC[C@]4(C)[C@H]3C[C@H](O)[C@]12C.[Na+] [CHA, sodium cholate] | 11 | 4.5 mg/ mL mg/mL |  |  |
| C[C@H](CCC(=O)[O-])[C@H]1CC[C@H]2[C@@H]3CC[C@@H]4C[C@H](O)CC[C@]4(C)[C@H]3C[C@H](O)[C@]12C.[Na+] [DCA, sodium deoxycholate] | 5 | 2.0 mg/ ml mg/mL |  |  |
| C[C@H](CCC(=O)NCC(=O)[O-])[C@H]1CC[C@H]2[C@@H]3[C@H](O)C[C@@H]4C[C@H](O)CC[C@]4(C)[C@H]3C[C@H](O)[C@]12C.[Na+] [GCA, sodium glycocholate] | 11 | 5.4 mg/ mL mg/mL | 128 |  |
| C[C@H](CCC(=O)NCC(=O)[O-])[C@H]1CC[C@H]2[C@@H]3[C@H](O)C[C@@H]4C[C@H](O)CC[C@]4(C)[C@H]3CC[C@]12C.[Na+] [GCDCA, sodium glycochenodeoxycholate] | 2 | 0.9 mg/ mL mg/mL |  |  |
| C[C@H](CCC(=O)NCC(=O)[O-])[C@H]1CC[C@H]2[C@@H]3CC[C@@H]4C[C@H](O)CC[C@]4(C)[C@H]3C[C@H](O)[C@]12C.[Na+] [GDCA, sodium glycodeoxycholate] | 2 | 0.9 mg/ mL mg/mL |  |  |
| C[C@H](CCC(=O)NCCS(=O)(=O)[O-])[C@H]1CC[C@H]2[C@@H]3[C@H](O)C[C@@H]4C[C@H](O)CC[C@]4(C)[C@H]3C[C@H](O)[C@]12C.[Na+] [STC, sodium taurocholate] | 6 | 3.2 mg/ ml mg/mL |  | greatest enhancement in intestinal permeability |
| C[C@H](CCC(=O)NCCS(=O)(=O)[O-])[C@H]1CC[C@H]2[C@@H]3[C@H](O)C[C@@H]4C[C@H](O)CC[C@]4(C)[C@H]3CC[C@]12C.[Na+] [TCDCA, sodium taurochenodeoxycholate] | 4 | 2.1 mg/ mL mg/mL |  |  |
| C[C@H](CCC(=O)NCCS(=O)(=O)[O-])[C@H]1CC[C@H]2[C@@H]3CC[C@@H]4C[C@H](O)CC[C@]4(C)[C@H]3C[C@H](O)[C@]12C.[Na+] [TDCA, sodium taurodeoxycholate] | 3 | 1.6 mg/ mL mg/mL |  |  |
